The record followed here is patent publication US8193362B2 (Syngenta Crop Protection LLC, priority 2008, dated 2012).

Each structure is given as a SMILES string. Counter-ions that a name gives are not always drawn.

What all share (format): in vivo
Assay [1] relates to Heliothis virescens (Tobacco Budworm). Kind of assay: Comparative Heliothis virescens egg test in petri dishes on artificial diet. The note with it: 144 h, 6 days incubation, read-out: percentage of dead larvae; for pest or weed control at 0.8 ppm: concentration 0.8 ppm; for pest or weed control at 1.5 ppm: concentration 1.5 ppm; for pest or weed control at 3 ppm: concentration 3 ppm; for pest or weed control at 6 ppm: concentration 6 ppm. As to the method:
This Example illustrates the pesticidal/insecticidal properties of compounds of formula (I) compared to Comparative Compound A and Comparative Compound B. Comparative Compound A and Comparative Compound B were disclosed in WO 2006/003494.
(§1) Heliothis virescens (Tobacco Budworm):
Fresh eggs (0-24 h old) on filterpaper were placed in petri dishes on top of a layer of artificial diet and treated with diluted test solutions by pipetting. After an incubation period of 6 days, samples were checked for larval mortality and growth regulation. The percentage of dead larvae was assessed.

For assay [2], the system named is Spodoptera littoralis (Egyptian Cotton Leafworm). Kind of assay: Spodoptera littoralis cotton leaf disc spray test. Conditions: foliar, 72 h, 200 ppm spray on cotton leaf discs, L1 larvae, mortality, feeding behavior, growth regulation 3 DAT. An excerpt:
Spodoptera littoralis (Egyptian Cotton Leafworm)
Cotton leaf discs were placed on agar in a 24-well microtiter plate and sprayed with test solutions at an application rate of 200 ppm. After drying, the leaf discs were infested with 5 L1 larvae. The samples were checked for mortality, feeding behavior, and growth regulation 3 days after treatment (DAT).

In assay [3] the test system is Diabrotica balteata (Corn Root Worm). Kind of assay: Diabrotica balteata L2 larvae test on artificial diet in 24-well microtiter plate. The note with it: 120 h, 200 ppm (concentration in well 18 ppm), 5 days, larval mortality, growth regulation. As to the method: Diabrotica balteata (Corn Root Worm):
A 24-well microtiter plate (MTP) with artificial diet was treated with test solutions at an application rate of 200 ppm (concentration in well 18 ppm) by pipetting. After drying, the MTP's were infested with larvae (L2) (6-10 per well). After an incubation period of 5 days, samples were checked for larval mortality, and growth regulation.

Assay [4] deals with Heliothis virescens (Tobacco Budworm). Kind of assay: Heliothis virescens egg test on artificial diet in 24-well microtiter plate. Conditions: 96 h, 200 ppm (concentration in well 18 ppm), eggs 0-24 h old, 4 days, egg mortality, larval mortality, growth regulation. As for the experimental part:
as §1
Eggs (0-24 h old) were placed in 24-well microtiter plate on artificial diet and treated with test solutions at an application rate of 200 ppm (concentration in well 18 ppm) by pipetting. After an incubation period of 4 days, samples were checked for egg mortality, larval mortality and growth regulation.

In assay [5] the test system is Plutella xylostella (Diamond Back Moth). Kind of assay: Plutella xylostella L2 larvae test on artificial diet in 24-well microtiter plate. Conditions: 144 h, 200 ppm (concentration in well 18 ppm), 6 days, larval mortality, growth regulation. As for the experimental part: Plutella xylostella (Diamond Back Moth):
A 24-well microtiter plate (MTP) with artificial diet was treated with test solutions at an application rate of 200 ppm (concentration in well 18 ppm) by pipetting. After drying, the MTP's were infested with L2 larvae (7-12 per well). After an incubation period of 6 days, samples were checked for larval mortality and growth regulation.

`O=C(Nc1ccc(Cl)nc1C1CCN(C/C=C/c2ccc(Cl)cc2)CC1)c1ccnc(Cl)c1` [Comparative Compound A, reference compound]: in assay [1], the pest or weed control at 0.8 ppm amounted to 30%, the pest or weed control at 1.5 ppm amounted to 50%, the pest or weed control at 3 ppm amounted to 70% and the pest or weed control at 6 ppm was found to be 93%.

For the compound `O=C(Nc1cc(Cl)cnc1C1CCN(C/C=C/c2ccc(Cl)cc2)CC1)c1ccnc(Cl)c1` [Comparative Compound B, reference compound], in assay [1], the pest or weed control at 0.8 ppm turned out to be 0%, the pest or weed control at 1.5 ppm is 50%, the pest or weed control at 3 ppm amounted to 93% and the pest or weed control at 6 ppm stood at 100%.

Regarding `O=C(Nc1ccc(C(F)(F)F)nc1C1CCN(C/C=C/c2ccc(Cl)cc2)CC1)c1ccnc(Cl)c1` [Compound A14, 2-chloro-N-{1′-[(E)-3-(4-chloro-phenyl)-allyl]-6-trifluoromethyl-1′,2′,3′,4′,5′,6′-hexahydro-[2,4′]bipyridinyl-3-yl}-isonicotinamide], in assay [1], the pest or weed control at 0.8 ppm was 100%, the pest or weed control at 1.5 ppm was 100%, the pest or weed control at 3 ppm is 100% and the pest or weed control at 6 ppm was 100%. The compound further had a pest or weed control at 200 ppm in assay [2] of no less than 80%.

Take `O=C(Nc1cc(Cl)c(Cl)nc1C1CCN(C/C=C/c2ccc(Cl)cc2)CC1)c1ccnc(Cl)c1` [Compound C1, 2-chloro-N-{5,6-dichloro-1′-[(E)-3-(4-chloro-phenyl)-allyl]-1′,2′,3′,4′,5′,6′-hexahydro-[2,4′]bipyridinyl-3-yl}-isonicotinamide]: the pest or weed control at 200 ppm in assay [3] is no less than 80%. In assay [1], the pest or weed control at 0.8 ppm was 100%, the pest or weed control at 1.5 ppm is 100%, the pest or weed control at 3 ppm turned out to be 100% and the pest or weed control at 6 ppm came out at 100%. Moreover, the pest or weed control at 200 ppm in assay [2] was no less than 80%.

Compound `O=C(Nc1cc(Cl)c(C(F)(F)F)nc1C1CCN(C/C=C/c2ccc(Cl)cc2)CC1)c1ccnc(Cl)c1` [Compound H1, 2-chloro-N-{5-chloro-1′-[(E)-3-(4-chloro-phenyl)-allyl]-6-trifluoromethyl-1′,2′,3′,4′,5′,6′-hexahydro-[2,4′]bipyridinyl-3-yl}-isonicotinamide] displayed a pest or weed control at 200 ppm in assay [4] of no less than 80%. Also, in assay [1], the pest or weed control at 0.8 ppm is 40%, the pest or weed control at 1.5 ppm was 78%, the pest or weed control at 3 ppm was found to be 100% and the pest or weed control at 6 ppm was determined as 100%. This compound returned a pest or weed control at 200 ppm in assay [5] of no less than 80%. Further, the pest or weed control at 200 ppm in assay [2] is no less than 80%.

In the case of `O=C(Nc1c(C2CCN(C/C=C/c3ccc(Cl)cc3)CC2)nc(Cl)c(Cl)c1Cl)c1ccnc(Cl)c1` [Compound J1, 2-chloro-N-{4,5,6-trichloro-1′-[(E)-3-(4-chlorophenyl)-allyl]-1′,2′,3′,4′,5′,6′-hexahydro-[2,4′]bipyridinyl-3-yl}-isonicotinamide], the pest or weed control at 200 ppm in assay [4] is no less than 80%. Further, in assay [1], the pest or weed control at 0.8 ppm came out at 40%, the pest or weed control at 1.5 ppm turned out to be 90%, the pest or weed control at 3 ppm worked out at 93% and the pest or weed control at 6 ppm worked out at 100%. Also, the pest or weed control at 200 ppm in assay [5] is no less than 80%. The same compound yielded a pest or weed control at 200 ppm in assay [2] of no less than 80%.

Take `O=C(Nc1c(F)cc(C(F)(F)F)nc1C1CCN(C/C=C/c2ccc(Cl)cc2)CC1)c1ccnc(Cl)c1` [Compound K1, 2-chloro-N-{1′-[(E)-3-(4-chloro-phenyl)-allyl]-4-fluoro-6-trifluoromethyl-1′,2′,3′,4′,5′,6′-hexahydro-[2,4′]bipyridinyl-3-yl}-isonicotinamide]: the pest or weed control at 200 ppm in assay [4], in assay [5] and in assay [2] was no less than 80% throughout.

For the compound `O=C(Nc1cc(C(F)(F)F)c(F)nc1C1CCN(C/C=C/c2ccc(Cl)cc2)CC1)c1ccnc(Cl)c1` [Compound M1, 2-chloro-N-{1′-[(E)-3-(4-chloro-phenyl)-allyl]-6-fluoro-5-trifluoromethyl-1′,2′,3′,4′,5′,6′-hexahydro-[2,4′]bipyridinyl-3-yl}-isonicotinamide], the pest or weed control at 200 ppm in assay [3], in assay [4], in assay [5] and in assay [2] was no less than 80% each time.

For the compound `O=C(Nc1cc(F)c(F)nc1C1CCN(C/C=C/c2ccc(Cl)cc2)CC1)c1ccnc(Cl)c1` [Compound N1, 2-chloro-N-{1′-[(E)-3-(4-chloro-phenyl)-allyl]-5,6-difluoro-1′,2′,3′,4′,5′,6′-hexahydro-[2,4′]bipyridinyl-3-yl}-isonicotinamide], the pest or weed control at 200 ppm in assay [3], in assay [4], in assay [5] and in assay [2] was no less than 80% throughout.

As to `O=C(Nc1ccc(C(F)F)nc1C1CCN(C/C=C/c2ccc(Cl)cc2)CC1)c1ccnc(Cl)c1` [Compound O1, 2-chloro-N-{1′-[(E)-3-(4-chloro-phenyl)-allyl]-6-difluoromethyl-1′,2′,3′,4′,5′,6′-hexahydro-[2,4]bipyridinyl-3-yl}-isonicotinamide], the pest or weed control at 200 ppm in assay [4], in assay [5] and in assay [2] was no less than 80% in each case.

For `O=C(Nc1ccc(OC(F)F)nc1C1CCN(C/C=C/c2ccc(Cl)cc2)CC1)c1ccnc(Cl)c1` [Compound P1, 2-chloro-N-{1′-[(E)-3-(4-chloro-phenyl)-allyl]-6-difluoromethoxy-1′,2′,3′,4′,5′,6′-hexahydro-[2,4′]bipyridinyl-3-yl}-isonicotinamide], the pest or weed control at 200 ppm in assay [3], in assay [4], in assay [5] and in assay [2] was no less than 80% throughout.

As for `O=C(Nc1ccc(C(F)(F)F)nc1C1CCN(C/C=C/c2ccc(Cl)cc2)CC1)c1ccnc(Cl)c1` [Compound Q1, 2-chloro-N-{1′-[(E)-3-(4-chloro-phenyl)-allyl]-6-trifluoromethyl-1′,2′,3′,4′,5′,6′-hexahydro-[2,4′]bipyridinyl-3-yl}-isonicotinamide 2-ethyl-hexanoic acid salt], the pest or weed control at 200 ppm in assay [3], in assay [4] and in assay [5] was no less than 80% in each case.

As to `O=C(Nc1cc(Cl)c(Cl)nc1C1CCN(C/C=C/c2ccc(Cl)cc2)CC1)c1ccnc(Cl)c1` [Compound Q20], the pest or weed control at 200 ppm in assay [4] and in assay [5] was no less than 80% each time.

As for `O=C(Nc1ccc(C(F)(F)F)nc1C1CC[N+]([O-])(C/C=C/c2ccc(Cl)cc2)CC1)c1ccnc(Cl)c1` (centres unmarked) [Compound R1], the pest or weed control at 200 ppm in assay [3] (in Zea mays), in assay [4], in assay [5] and in assay [2] (in Gossypium hirsutum) was no less than 80% in each case.

As to `O=C(Nc1cc(Cl)c(Cl)nc1C1CC[N+]([O-])(C/C=C/c2ccc(Cl)cc2)CC1)c1ccnc(Cl)c1` (centres unmarked) [Compound R2], the pest or weed control at 200 ppm in assay [3], in assay [4], in assay [5] and in assay [2] was no less than 80% each time.

On to `O=C(Nc1ccc(C(F)(F)F)nc1C1CC[N+]([O-])(C/C=C/c2ccc(C(F)(F)F)cc2)CC1)c1ccnc(Cl)c1` (centres unmarked) [Compound R3], for which the pest or weed control at 200 ppm in assay [3], in assay [4], in assay [5] and in assay [2] was no less than 80% throughout.

For the compound `O=C(Nc1cc(C(F)(F)F)c(Cl)nc1C1CC[N+]([O-])(C/C=C/c2ccc(Br)cc2)CC1)c1ccnc(Cl)c1` (centres unmarked) [Compound R4], the pest or weed control at 200 ppm in assay [4], in assay [5] and in assay [2] was no less than 80% each time.
